Results: US6623741B1, “Methods and compositions for inhibition of membrane fusion-associated events including RSV transmission” (Trimeris, Inc., priority 2000, dated 2003)
Values joined by “and” are separate entries in the source; they are usually repeats but may differ in a detail not shown here. Identical values can stand only once.

Assays:
[1] = Circular dichroism spectroscopy (helicity, thermal stability); format: physicochemical; conditions: 10 and 50 μM
Description: Circular Dichroism Spectroscopy:
Circular Dichroism (CD) spectra were obtained using an AVIV Associates 62DS spectrometer equipped with a thermoelectric temperature controller. Spectra were obtained in 0.1, 0.5 and 1.0 cm quartz cells at 1° C. with 0.5 nm steps from 200 to 260 nm, 1.5 nm bandwidth and an averaging time of 4 sec/step. After the cell/buffer blank was subtracted, spectra were smoothed using a third-order least-squares polynomial fit with a conservative (5-10 point) window size to give random residuals. Mixing experiments were performed by comparing the spectrum of the two peptides mixed together in a 0.1 cm path length cell at the desired concentrations (referred to herein as the “experimental” spectrum) to the sum of the individual spectra of the peptides, each solution in a 0.1 cm path length cell (referred to herein as the “model spectrum” for no peptide interaction or “model for no interaction”).
Raw ellipticity values were converted to mean residue ellipticity using standard methods (Cantor & Schimmel, 1980, Biophysical Chemistry Part II: Techniques for the Study of Biological Structure and Function, W.H. Freeman and Co., New York). Conversions for the mixing experiment spectra were performed using a peptide length corresponding to the average of the two peptides. Thermal stability measurements were performed in 2° C. steps, with 1 minute equilibration times. Spectra were smoothed, converted to mean residue ellipticity, and the corresponding value at 222 nm noted from each spectrum. Percent helicity values were calculated using single value decomposition with a basis set of 33 protein spectra (Johnson & Curtis, 1990, Proteins: Structure, Function and Genetics 7:205-214).

[2] = test system: RSV; experiment: Anti-RSV antiviral activity assay (syncytial formation, HEp2 cells); format: cell-based, respiratory syncytial virus; conditions: purified peptides
Description: Anti-RSV Antiviral Activity Assays:
The assay utilized herein tested the ability of the peptides to disrupt the ability of HEp2 cells acutely infected with RSV (i.e., cells which are infected with a multiplicity of infection of greater than 2) to fuse and cause syncytial formation on a monolayer of uninfected an uninfected line of Hep-2 cells. The lower the observed level of fusion, the greater the antiviral activity of the peptide was determined to be. […]
After incubation, cells in control wells were checked for fusion centers, media was removed from the wells, followed by addition, to each well, of either Crystal Violet stain or XTT. […] The number of syncytia per well were then counted, using a dissecting microscope.
With respect to XTT (2,3-bis[2-Methoxy-4-nitro-5-sulfophenyl]-2H-tetrazolium-5-carboxyanilide inner salt), 50 μl XTT (1 mg/ml in RPMI buffered with 100 mM HEPES, pH 7.2-7.4, plus 5% DMSO) were added to each well. The OD450/690 was measured (after blanking against growth medium without cells or reagents, and against reagents) according to standard procedures. […]

[3] = molecular target: T1, DP107-like domain of the RSV F1-protein (MF5.1 fusion protein) (Human respiratory syncytial virus A, UniProt P03420); experiment: biochemical; format: binding; conditions: binding affinity for the DP107-like domain of RSV F1 protein
T1 construct: made in house
Description: After incubation and washing, unbound Fab-d is removed from the plates and bound Fab-d is quantitated. A no-inhibitor control should also be conducted.
Such an assay takes advantage of accepted radioligand and receptor binding principles. (See, for example, Yamamura, H. I. et al., 1985, “Neurotransmitter Receptor Binding”, 2nd ed., Raven Press, NY.) As above, M41Δ78 is immobilized onto a solid support such as a microtiter well. […] Specific binding to M41Δ78 is defined as the difference of the binding of the labeled DP178 preparation in the microtiter wells (totals) and the binding in identical wells containing, in addition, excess unlabeled DP178 (nonspecifics).
Specifically, the DNA sequence corresponding amino acid residues 142-302 of the RSV F1 protein was amplified by PCR and cloned into the Xmn I site of the expression vector pMal-p2 (New England Biolab) to give MF5.1. These amino acid residues correspond to the extracellular domain of the RSV F1 protein including its DP107 region but excluding the DP178 region.
Cell fusion assays were performed with each of the peptides as described in Section 17 above.

[4] = test system: HR1 domain of RSV-F1; format: binding, respiratory syncytial virus; conditions: 5 μg/ml proteinase-K, one hour at 37° C.
Description: Proteinase-K Protection Experiments:
(§1) Mixtures were treated with 5 μg/ml proteinase-K (Sigma, St. Louis, Mo.) or an equivalent volume of buffer, vortexed and then incubated for one hour at 37° C. Phenyl methyl sulfonyl fluoride (PMSF, Boehringer Mannheim, Indianapolis, Ind.) was added to achieve a 2 mM final concentration to stop proteolytic digestion. 20 μl of each sample was removed and added to 10 μl of a sample buffer (New England Biolabs, Boston, Mass.) containing 6 w/v% Sodium Dodecyl Sulfate (DDS), DTT, 187.5 mM TRIS, 30% glycerol and bromophenol blue. The mixtures were heated for five minutes at 90° C. 15 μl of the samples were run on a 10-20% Tricine polyacrylamide gel (Novex, San Diego, Calif.), stained with Coomassie brilliant blue and destained with a 10% methanol-10% acetic acid mixture (Fisher, Norcross, Ga.).

[5] = molecular target: T2, HR1 domain of RSV-F1 (Human respiratory syncytial virus A, UniProt P03420); format: binding
T2 construct: made in house
Description: Proteinase-K Protection Experiments:
as §1

[6] = molecular target: T3, MBP fusion protein containing the ectodomain of the HIV-1 fusion protein gp41 (M41Δ178) (Human immunodeficiency virus type 1 group M subtype B, UniProt P03377); conditions: control for non-specific binding
T3 construct: made by cloning the DNA fragment corresponding to gp41 amino acids 540-642 into the Xmn I site of pMal-p2; made in house
T3 sequence (P03377 540-642, stated change not applied): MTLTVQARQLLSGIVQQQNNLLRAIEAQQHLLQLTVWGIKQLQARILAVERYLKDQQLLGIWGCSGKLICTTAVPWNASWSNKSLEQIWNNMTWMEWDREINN
Description: as §1

T1 sequence (P03420 142-302): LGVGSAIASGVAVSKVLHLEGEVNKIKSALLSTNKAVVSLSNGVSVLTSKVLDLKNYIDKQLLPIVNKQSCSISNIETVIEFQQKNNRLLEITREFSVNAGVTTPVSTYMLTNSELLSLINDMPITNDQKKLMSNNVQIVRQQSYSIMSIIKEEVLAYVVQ
T2 sequence (P03420 142-302): as above

SMILES: CC[C@H](C)[C@H](NC(=O)[C@H](Cc1ccccc1)NC(=O)[C@H](C)NC(=O)[C@H](CC(C)C)NC(=O)[C@H](CO)NC(=O)[C@H](CCC(N)=O)NC(=O)[C@H](CC(N)=O)NC(=O)[C@@H](NC(=O)[C@H](CCCCN)NC(=O)[C@H](CCC(=O)O)NC(=O)[C@H](CC(N)=O)NC(=O)[C@@H](NC(=O)[C@H](CCC(N)=O)NC(=O)[C@H](CO)NC(=O)[C@@H](NC(=O)[C@H](CO)NC(=O)[C@H](C)NC(=O)[C@H](CC(=O)O)NC(=O)[C@H](Cc1ccccc1)NC(=O)[C@H](CCC(=O)O)NC(=O)[C@H](CC(=O)O)NC(=O)[C@H](CO)NC(=O)[C@@H]1CCCN1C(=O)[C@H](Cc1ccccc1)NC(=O)[C@@H](NC(C)=O)C(C)C)[C@@H](C)CC)C(C)C)[C@@H](C)CC)C(=O)N[C@@H](CCCNC(=N)N)C(=O)N[C@@H](CCCCN)C(=O)N[C@@H](CO)C(=O)N[C@@H](CC(=O)O)C(=O)N[C@@H](CCC(=O)O)C(=O)N[C@@H](CC(C)C)C(=O)N[C@@H](CC(C)C)C(=O)N[C@@H](Cc1c[nH]cn1)C(=O)N[C@@H](CC(N)=O)C(=O)N[C@H](C(N)=O)C(C)C [Peptide T112]
- thermal stability (CD melting curves, in words) [1]: little thermal stability
- helicity ([1]; PBS solution): less than 10%
- anti-RSV antiviral activity (in words) [2]: substantial antiviral activity
- Kd [3]: 2 nM and 1 nM
- proteinase-K digestion of the peptide alone [4]: digest the peptide entiretly
- binding to the HR1 domain of RSV-F1 and protection from proteolytic digestion [5]: binds to the HR1 domain of RSV-F1 and thereby protects the domain from proteolytic digestion
- binding to MBP fusion protein containing the HIV-1 gp41 ectodomain [6]: does not bind
